Experimental data published in patent US10590078B2, “Sodium channel blockers” (Daewoong Pharmaceutical Co., Ltd., priority 2015, dated 2020).

molecular target: human sodium ion channel 1.7 (hNav1.7) (Homo sapiens, UniProt Q15858); assay: Blocking effect against sodium ion channel Nav1.7, IonFlux16 auto patch clamp in hNav1.7 HEK293 cells; format: cell-based; conditions: not given
Sequence (Q15858 whole entry): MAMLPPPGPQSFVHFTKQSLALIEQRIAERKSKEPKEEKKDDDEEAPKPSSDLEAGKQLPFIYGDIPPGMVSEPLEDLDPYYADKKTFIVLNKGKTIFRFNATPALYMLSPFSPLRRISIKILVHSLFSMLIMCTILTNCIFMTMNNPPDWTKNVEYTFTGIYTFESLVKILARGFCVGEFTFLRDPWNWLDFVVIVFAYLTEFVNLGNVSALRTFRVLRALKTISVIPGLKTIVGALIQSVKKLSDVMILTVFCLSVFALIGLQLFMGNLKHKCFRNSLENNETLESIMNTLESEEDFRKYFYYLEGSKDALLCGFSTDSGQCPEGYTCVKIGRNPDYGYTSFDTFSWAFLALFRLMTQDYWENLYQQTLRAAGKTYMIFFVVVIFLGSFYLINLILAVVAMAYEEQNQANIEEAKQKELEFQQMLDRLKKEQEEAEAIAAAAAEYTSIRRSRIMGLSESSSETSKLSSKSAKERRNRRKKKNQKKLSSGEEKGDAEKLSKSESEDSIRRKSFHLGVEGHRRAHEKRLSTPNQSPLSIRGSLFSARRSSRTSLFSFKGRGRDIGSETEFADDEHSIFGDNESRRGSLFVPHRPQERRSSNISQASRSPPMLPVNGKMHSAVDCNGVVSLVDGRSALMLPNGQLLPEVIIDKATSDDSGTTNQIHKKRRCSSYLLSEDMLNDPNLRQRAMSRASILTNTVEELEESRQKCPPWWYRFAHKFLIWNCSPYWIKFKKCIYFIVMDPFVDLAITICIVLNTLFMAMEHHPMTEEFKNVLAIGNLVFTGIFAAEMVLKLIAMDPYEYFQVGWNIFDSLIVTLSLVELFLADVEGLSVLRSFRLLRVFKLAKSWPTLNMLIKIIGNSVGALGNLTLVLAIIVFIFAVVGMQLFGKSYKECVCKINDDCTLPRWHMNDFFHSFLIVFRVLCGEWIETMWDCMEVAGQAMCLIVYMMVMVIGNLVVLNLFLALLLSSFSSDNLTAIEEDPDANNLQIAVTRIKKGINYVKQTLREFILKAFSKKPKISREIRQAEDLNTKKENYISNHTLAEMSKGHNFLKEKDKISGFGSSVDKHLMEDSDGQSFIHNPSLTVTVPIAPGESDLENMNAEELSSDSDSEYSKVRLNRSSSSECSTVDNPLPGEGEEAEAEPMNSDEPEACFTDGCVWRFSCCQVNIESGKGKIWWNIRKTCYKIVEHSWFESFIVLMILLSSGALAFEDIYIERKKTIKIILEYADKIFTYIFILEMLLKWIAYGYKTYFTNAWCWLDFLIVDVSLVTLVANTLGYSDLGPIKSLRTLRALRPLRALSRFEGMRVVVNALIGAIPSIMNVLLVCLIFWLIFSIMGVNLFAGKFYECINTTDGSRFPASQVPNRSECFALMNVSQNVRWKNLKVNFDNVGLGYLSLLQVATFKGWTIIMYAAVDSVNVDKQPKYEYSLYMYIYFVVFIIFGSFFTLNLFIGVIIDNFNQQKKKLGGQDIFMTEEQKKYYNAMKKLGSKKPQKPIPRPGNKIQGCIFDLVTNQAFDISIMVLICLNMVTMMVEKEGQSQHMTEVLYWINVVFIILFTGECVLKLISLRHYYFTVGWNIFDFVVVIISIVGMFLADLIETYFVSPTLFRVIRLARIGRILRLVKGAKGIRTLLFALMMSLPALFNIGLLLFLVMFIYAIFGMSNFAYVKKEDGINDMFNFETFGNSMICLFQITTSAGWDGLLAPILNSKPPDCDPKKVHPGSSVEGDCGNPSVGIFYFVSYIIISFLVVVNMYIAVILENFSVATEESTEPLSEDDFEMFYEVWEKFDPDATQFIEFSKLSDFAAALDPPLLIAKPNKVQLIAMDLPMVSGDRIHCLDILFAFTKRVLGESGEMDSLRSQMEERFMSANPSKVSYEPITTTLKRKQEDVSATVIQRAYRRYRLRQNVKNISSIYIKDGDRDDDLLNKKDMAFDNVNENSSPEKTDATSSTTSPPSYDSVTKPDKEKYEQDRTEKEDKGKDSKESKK

SMILES | IC50 [nM]
CS(=O)(=O)NC(=O)c1cc(Cl)c(-n2nc(-c3cc(F)ccc3F)c3cc(Cl)ccc32)cc1F [Example 76, 5-chloro-4-(5-chloro-3-(2,5-difluorophenyl)-1H-indazol-1-yl)-2-fluoro-N-(methylsulfonyl)benzamide] | 90
CS(=O)(=O)NC(=O)c1cc(Cl)c(-n2nc(-c3cc(F)c(F)c(F)c3)c3cc(Cl)ccc32)cc1F [Example 77, 5-chloro-4-(5-chloro-3-(3,4,5-trifluorophenyl)-1H-indazol-1-yl)-2-fluoro-N-(methylsulfonyl)benzamide] | 20
CS(=O)(=O)NC(=O)c1cc(Cl)c(-n2nc(-c3cccc(Cl)c3F)c3cc(Cl)ccc32)cc1F [Example 79, 5-chloro-4-(5-chloro-3-(3-chloro-2-fluorophenyl)-1H-indazol-1-yl)-2-fluoro-N-(methylsulfonyl)benzamide] | 70

same assay, conditions: hNav1.7 HEK293 cells; inhibition of peak current after 50 seconds treatment; eight concentrations; read-out: IC50

SMILES | IC50 [nM]
CS(=O)(=O)NC(=O)c1cc(Cl)c(-n2nc(-c3ccc(Cl)cc3)c3cc(Cl)ccc32)cc1F [Example 67, 5-chloro-4-(5-chloro-3-(4-chlorophenyl)-1H-indazol-1-yl)-2-fluoro-N-(methylsulfonyl)benzamide] | 33
CS(=O)(=O)NC(=O)c1cc(Cl)c(-n2nc(-c3ccnc(F)c3)c3cc(Cl)ccc32)cc1F [Example 68, 5-chloro-4-(5-chloro-3-(2-fluoropyridin-4-yl)-1H-indazol-1-yl)-2-fluoro-N-(methylsulfonyl)benzamide] | 590
CS(=O)(=O)NC(=O)c1cc(Cl)c(-n2nc(-c3cc(Cl)ccc3F)c3cc(Cl)ccc32)cc1F [Example 69, 5-chloro-4-(5-chloro-3-(5-chloro-2-fluorophenyl)-1H-indazol-1-yl)-2-fluoro-N-(methylsulfonyl)benzamide] | 37
CS(=O)(=O)NC(=O)c1cc(Cl)c(-n2nc(-c3ccccc3Cl)c3cc(Cl)ccc32)cc1F [Example 71, 5-chloro-4-(5-chloro-3-(2-chlorophenyl)-1H-indazol-1-yl)-2-fluoro-N-(methylsulfonyl)benzamide] | 48
CS(=O)(=O)NC(=O)c1cc(Cl)c(-n2nc(-c3cccc(Cl)c3)c3cc(Cl)ccc32)cc1F [Example 72, 5-chloro-4-(5-chloro-3-(3-chlorophenyl)-1H-indazol-1-yl)-2-fluoro-N-(methylsulfonyl)benzamide] | 61
CS(=O)(=O)NC(=O)c1cc(Cl)c(-n2nc(-c3cc(F)cc(Cl)c3)c3cc(Cl)ccc32)cc1F [Example 73, 5-chloro-4-(5-chloro-3-(3-chloro-5-fluorophenyl)-1H-indazol-1-yl)-2-fluoro-N-(methylsulfonyl)benzamide] | 30
CS(=O)(=O)NC(=O)c1cc(Cl)c(-n2nc(-c3ccc(F)cc3Cl)c3cc(Cl)ccc32)cc1F [Example 74, 5-chloro-4-(5-chloro-3-(2-chloro-4-fluorophenyl)-1H-indazol-1-yl)-2-fluoro-N-(methylsulfonyl)benzamide] | 20
CS(=O)(=O)NC(=O)c1cc(Cl)c(-n2nc(-c3ccc(F)c(F)c3)c3cc(Cl)ccc32)cc1F [Example 75, 5-chloro-4-(5-chloro-3-(3,4-difluorophenyl)-1H-indazol-1-yl)-2-fluoro-N-(methylsulfonyl)benzamide] | 180
CS(=O)(=O)NC(=O)c1cc(Cl)c(-n2nc(-c3c(F)cccc3Cl)c3cc(Cl)ccc32)cc1F [Example 78, 5-chloro-4-(5-chloro-3-(2-chloro-6-fluorophenyl)-1H-indazol-1-yl)-2-fluoro-N-(methylsulfonyl)benzamide] | 130
CS(=O)(=O)NC(=O)c1cc(Cl)c(-n2nc(-c3ccc(Cl)c(F)c3)c3cc(Cl)ccc32)cc1F [Example 80, 5-chloro-4-(5-chloro-3-(4-chloro-3-fluorophenyl)-1H-indazol-1-yl)-2-fluoro-N-(methylsulfonyl)benzamide] | 80
CS(=O)(=O)NC(=O)c1cc(Cl)c(-n2nc(-c3ccc([N+](=O)[O-])cc3)c3cc(Cl)ccc32)cc1F [Example 81, 5-chloro-4-(5-chloro-3-(4-nitrophenyl)-1H-indazol-1-yl)-2-fluoro-N-(methylsulfonyl)benzamide] | 240
CS(=O)(=O)NC(=O)c1cc(Cl)c(-n2nc(-c3ccc(N)cc3)c3cc(Cl)ccc32)cc1F [Example 82, 4-(3-(4-aminophenyl)-5-chloro-1H-indazol-1-yl)-5-chloro-2-fluoro-N-(methylsulfonyl)benzamide] | 7910
CS(=O)(=O)NC(=O)c1cc(Cl)c(-n2nc(-c3ccc(OC(F)(F)F)cc3)c3cc(Cl)ccc32)cc1F [Example 83, 5-chloro-4-(5-chloro-3-(4-(trifluoromethoxy)phenyl)-1H-indazol-1-yl)-2-fluoro-N-(methylsulfonyl)benzamide] | 80
CC(C)Cc1ccc2c(c1)c(-c1ccccc1)nn2-c1cc(F)c(C(=O)NS(C)(=O)=O)cc1Cl [Example 84, 5-chloro-2-fluoro-4-(5-isobutyl-3-phenyl-1H-indazol-1-yl)-N-(methylsulfonyl)benzamide] | 110
CS(=O)(=O)NC(=O)c1cc(Cl)c(-n2nc(-c3ccc(Cl)cc3)c3cc(C4CC4)ccc32)cc1F [Example 85, 5-chloro-4-(3-(4-chlorophenyl)-5-cyclopropyl-1H-indazol-1-yl)-2-fluoro-N-(methylsulfonyl)benzamide] | 600
CS(=O)(=O)NC(=O)c1cc(Cl)c(-n2nc(N3CCOCC3)c3cc(Cl)ccc32)cc1F [Example 86, 5-chloro-4-(5-chloro-3-morpholino-1H-indazol-1-yl)-2-fluoro-N-(methylsulfonyl)benzamide] | > 10000

SMILES | IC50 [nM]
Cn1nccc1-c1nn(-c2cc(F)c(C(=O)NS(C)(=O)=O)cc2Cl)c2ccc(Cl)cc12 [Example 87, 5-chloro-4-(5-chloro-3-(1-methyl-1H-pyrazol-5-yl)-1H-indazol-1-yl)-2-fluoro-N-(methylsulfonyl)benzamide] | > 3000
Cn1cc(-c2nn(-c3cc(F)c(C(=O)NS(C)(=O)=O)cc3Cl)c3ccc(Cl)cc23)cn1 [Example 88, 5-chloro-4-(5-chloro-3-(1-methyl-1H-pyrazol-4-yl)-1H-indazol-1-yl)-2-fluoro-N-(methylsulfonyl)benzamide] | > 10000
CS(=O)(=O)NC(=O)c1cc(Cl)c(-n2nc(-c3cn[nH]c3)c3cc(Cl)ccc32)cc1F [Example 89, 5-chloro-4-(5-chloro-3-(1H-pyrazol-4-yl)-1H-indazol-1-yl)-2-fluoro-N-(methylsulfonyl)benzamide] | > 10000
CS(=O)(=O)NC(=O)c1cc(Cl)c(-n2nc(-c3cc[nH]n3)c3cc(Cl)ccc32)cc1F [Example 90, 5-chloro-4-(5-chloro-3-(1H-pyrazol-3-yl)-1H-indazol-1-yl)-2-fluoro-N-(methylsulfonyl)benzamide] | 11200
Cc1ncc(-c2nn(-c3cc(F)c(C(=O)NS(C)(=O)=O)cc3Cl)c3ccc(Cl)cc23)s1 [Example 91, 5-chloro-4-(5-chloro-3-(2-methylthiazol-5-yl)-1H-indazol-1-yl)-2-fluoro-N-(methylsulfonyl)benzamide] | 1930
COc1ccccc1-c1nn(-c2ccc(C(=O)NS(C)(=O)=O)cc2C#N)c2ccc(Cl)cc12 [Example 92, 4-(5-chloro-3-(2-methoxyphenyl)-1H-indazol-1-yl)-3-cyano-N-(methylsulfonyl)benzamide] | 5290
COc1ccc(-c2nn(-c3ccc(C(=O)NS(C)(=O)=O)cc3C#N)c3ccc(Cl)cc23)cc1 [Example 93, 4-(5-chloro-3-(4-methoxyphenyl)-1H-indazol-1-yl)-3-cyano-N-(methylsulfonyl)benzamide] | 226
CS(=O)(=O)NC(=O)c1ccc(-n2nc(-c3ccccc3C#N)c3cc(Cl)ccc32)c(C#N)c1 [Example 94, 4-(5-chloro-3-(2-cyanophenyl)-1H-indazol-1-yl)-3-cyano-N-(methylsulfonyl)benzamide] | > 10000
CS(=O)(=O)NC(=O)c1ccc(-n2nc(-c3cccc(C#N)c3)c3cc(Cl)ccc32)c(C#N)c1 [Example 95, 4-(5-chloro-3-(3-cyanophenyl)-1H-indazol-1-yl)-3-cyano-N-(methylsulfonyl)benzamide] | > 10000
CS(=O)(=O)NC(=O)c1ccc(-n2nc(-c3ccc(C#N)cc3)c3cc(Cl)ccc32)c(C#N)c1 [Example 96, 4-(5-chloro-3-(4-cyanophenyl)-1H-indazol-1-yl)-3-cyano-N-(methylsulfonyl)benzamide] | > 10000
CS(=O)(=O)NC(=O)c1ccc(-n2nc(-c3ccccc3C(F)(F)F)c3cc(Cl)ccc32)c(C#N)c1 [Example 97, 4-(5-chloro-3-(2-(trifluoromethyl)phenyl)-1H-indazol-1-yl)-3-cyano-N-(methylsulfonyl)benzamide] | 170
CS(=O)(=O)NC(=O)c1ccc(-n2nc(-c3cccc(C(F)(F)F)c3)c3cc(Cl)ccc32)c(C#N)c1 [Example 98, 4-(5-chloro-3-(3-(trifluoromethyl)phenyl)-1H-indazol-1-yl)-3-cyano-N-(methylsulfonyl)benzamide] | 887
CS(=O)(=O)NC(=O)c1ccc(-n2nc(-c3ccc(C(F)(F)F)cc3)c3cc(Cl)ccc32)c(C#N)c1 [Example 99, 4-(5-chloro-3-(4-(trifluoromethyl)phenyl)-1H-indazol-1-yl)-3-cyano-N-(methylsulfonyl)benzamide] | 1340
CS(=O)(=O)NC(=O)c1ccc(-n2nc(-c3ccc(Cl)cc3F)c3cc(Cl)ccc32)c(C#N)c1 [Example 100, 4-(5-chloro-3-(4-chloro-2-fluorophenyl)-1H-indazol-1-yl)-3-cyano-N-(methylsulfonyl)benzamide] | 279
CS(=O)(=O)NC(=O)c1ccc(-n2nc(-c3ccc(F)cc3)c3cc(Cl)ccc32)c(C#N)c1 [Example 101, 4-(5-chloro-3-(4-fluorophenyl)-1H-indazol-1-yl)-3-cyano-N-(methylsulfonyl)benzamide] | 3020
CS(=O)(=O)NC(=O)c1ccc(-n2nc(-c3ccccc3F)c3cc(Cl)ccc32)c(C#N)c1 [Example 102, 4-(5-chloro-3-(2-fluorophenyl)-1H-indazol-1-yl)-3-cyano-N-(methylsulfonyl)benzamide] | 1210
